Test results taken from PubChem BioAssay (NCI).
“And” between values parts separate entries of the source, which are not always exact repeats. Equal values may be shown once.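 Interpolation was linear, between the two tested concentrations surrounding the appropriate level; five concentrations were tested over 48 hours in 96-well plates. GI50 = concentration required for 50% inhibition of growth. Definition used: TGI = concentration required for complete inhibition of growth.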

How the values were obtained:
Assay in all cases: NCI tumour cell line growth inhibition, 48 h
786-0 renal = tested on: 786-0 renal
A498 renal = tested on: A498 renal
A549 NSCLC = tested on: A549 NSCLC
ACHN renal = tested on: ACHN renal
BT-549 breast = tested on: BT-549 breast
CAKI-1 renal = tested on: CAKI-1 renal
CCRF-CEM leukemia = tested on: CCRF-CEM leukemia
COLO 205 colon = tested on: COLO 205 colon
EKVX NSCLC = tested on: EKVX NSCLC
HCC-2998 colon = tested on: HCC-2998 colon
HCT-116 colon = tested on: HCT-116 colon
HCT-15 colon = tested on: HCT-15 colon
HL-60(TB) leukemia = tested on: HL-60(TB) leukemia
HOP-62 NSCLC = tested on: HOP-62 NSCLC
HOP-92 NSCLC = tested on: HOP-92 NSCLC
HS 578T breast = tested on: HS 578T breast
HT29 colon = tested on: HT29 colon
IGROV1 ovarian = tested on: IGROV1 ovarian
K-562 leukemia = tested on: K-562 leukemia
LOX IMVI melanoma = tested on: LOX IMVI melanoma
M14 melanoma = tested on: M14 melanoma
MALME-3M melanoma = tested on: MALME-3M melanoma
MCF7 breast = tested on: MCF7 breast
MDA-MB-231 breast = tested on: MDA-MB-231 breast
MDA-MB-435 = tested on: MDA-MB-435
MOLT-4 leukemia = tested on: MOLT-4 leukemia
NCI-H226 lung = tested on: NCI-H226 lung
NCI-H23 lung = tested on: NCI-H23 lung
NCI-H460 lung = tested on: NCI-H460 lung
NCI-H522 lung = tested on: NCI-H522 lung
NCI/ADR-RES ovarian = tested on: NCI/ADR-RES ovarian
OVCAR-4 ovarian = tested on: OVCAR-4 ovarian
OVCAR-5 ovarian = tested on: OVCAR-5 ovarian
OVCAR-8 ovarian = tested on: OVCAR-8 ovarian
PC-3 prostate = tested on: PC-3 prostate
RPMI-8226 leukemia = tested on: RPMI-8226 leukemia
RXF 393 renal = tested on: RXF 393 renal
SF-295 CNS = tested on: SF-295 CNS
SF-539 CNS = tested on: SF-539 CNS
SK-MEL-2 melanoma = tested on: SK-MEL-2 melanoma
SK-MEL-28 melanoma = tested on: SK-MEL-28 melanoma
SK-MEL-5 melanoma = tested on: SK-MEL-5 melanoma
SK-OV-3 ovarian = tested on: SK-OV-3 ovarian
SN12C renal = tested on: SN12C renal
SNB-19 CNS = tested on: SNB-19 CNS
SNB-75 CNS = tested on: SNB-75 CNS
SR leukemia = tested on: SR leukemia
SW-620 colon = tested on: SW-620 colon
T-47D breast = tested on: T-47D breast
TK-10 renal = tested on: TK-10 renal
U251 CNS = tested on: U251 CNS
UACC-257 melanoma = tested on: UACC-257 melanoma
UACC-62 melanoma = tested on: UACC-62 melanoma
UO-31 renal = tested on: UO-31 renal

COc1cc(C)c(-c2ccc(=O)c(OC)cc2C)c(OC)c1OC
GI50 (786-0 renal): > 100 µM and 46.2 µM | TGI (786-0 renal): > 100 µM | GI50 (A498 renal): > 100 µM and 14 µM | TGI (A498 renal): > 100 µM and 52.5 µM | GI50 (A549 NSCLC): > 100 µM and 35.5 µM | TGI (A549 NSCLC): > 100 µM | GI50 (ACHN renal): > 100 µM and 85.1 µM | TGI (ACHN renal): > 100 µM | GI50 (BT-549 breast): > 100 µM and 15.2 µM | TGI (BT-549 breast): > 100 µM | GI50 (CAKI-1 renal): > 100 µM and 19.5 µM | TGI (CAKI-1 renal): > 100 µM | GI50 (CCRF-CEM leukemia): > 100 µM and 29.7 µM | TGI (CCRF-CEM leukemia): > 100 µM | GI50 (COLO 205 colon): > 100 µM and 21.8 µM | TGI (COLO 205 colon): > 100 µM and 58.6 µM | GI50 (EKVX NSCLC): > 100 µM and 66.5 µM | TGI (EKVX NSCLC): > 100 µM | GI50 (HCC-2998 colon): > 100 µM and 33 µM | TGI (HCC-2998 colon): > 100 µM | GI50 (HCT-116 colon): > 100 µM and 25 µM | TGI (HCT-116 colon): > 100 µM | GI50 (HCT-15 colon): > 100 µM and 12.9 µM | TGI (HCT-15 colon): > 100 µM | GI50 (HL-60(TB) leukemia): > 100 µM and 21 µM | TGI (HL-60(TB) leukemia): > 100 µM and 94.6 µM | GI50 (HOP-62 NSCLC): > 100 µM and 34.3 µM | TGI (HOP-62 NSCLC): > 100 µM | GI50 (HOP-92 NSCLC): > 100 µM and 10.2 µM | TGI (HOP-92 NSCLC): > 100 µM | GI50 (HS 578T breast): > 100 µM and 15.9 µM | TGI (HS 578T breast): > 100 µM and 64.1 µM | GI50 (HT29 colon): > 100 µM and 25.2 µM | TGI (HT29 colon): > 100 µM and 93.5 µM | GI50 (IGROV1 ovarian): > 100 µM and 47.3 µM | TGI (IGROV1 ovarian): > 100 µM | TGI (K-562 leukemia): > 100 µM | TGI (LOX IMVI melanoma): > 100 µM | GI50 (M14 melanoma): > 100 µM and 17.3 µM | TGI (M14 melanoma): > 100 µM | GI50 (MALME-3M melanoma): > 100 µM and 37.8 µM | TGI (MALME-3M melanoma): > 100 µM | GI50 (MCF7 breast): > 100 µM and 25.3 µM | TGI (MCF7 breast): > 100 µM | GI50 (MDA-MB-231 breast): > 100 µM and 23.5 µM | TGI (MDA-MB-231 breast): > 100 µM | TGI (MDA-MB-435): > 100 µM and 15.3 µM | GI50 (MOLT-4 leukemia): > 100 µM and 36 µM | TGI (MOLT-4 leukemia): > 100 µM | GI50 (NCI-H226 lung): > 100 µM and 86.5 µM | TGI (NCI-H226 lung): > 100 µM | GI50 (NCI-H23 lung): > 100 µM and 46.9 µM | TGI (NCI-H23 lung): > 100 µM | GI50 (NCI-H460 lung): > 100 µM and 31.7 µM | TGI (NCI-H460 lung): > 100 µM | GI50 (NCI-H522 lung): > 100 µM and 20.2 µM | TGI (NCI-H522 lung): > 100 µM and 70.1 µM | GI50 (NCI/ADR-RES ovarian): > 100 µM and 27.9 µM | TGI (NCI/ADR-RES ovarian): > 100 µM | GI50 (OVCAR-4 ovarian): > 100 µM and 92.2 µM | TGI (OVCAR-4 ovarian): > 100 µM | GI50 (OVCAR-5 ovarian): > 100 µM and 41.8 µM | TGI (OVCAR-5 ovarian): > 100 µM | GI50 (OVCAR-8 ovarian): > 100 µM and 35.3 µM | TGI (OVCAR-8 ovarian): > 100 µM | GI50 (PC-3 prostate): > 100 µM and 31.9 µM | TGI (PC-3 prostate): > 100 µM | GI50 (RPMI-8226 leukemia): > 100 µM and 41.4 µM | TGI (RPMI-8226 leukemia): > 100 µM | GI50 (RXF 393 renal): > 100 µM and 21.1 µM | TGI (RXF 393 renal): > 100 µM and 76.5 µM | GI50 (SF-295 CNS): > 100 µM and 22.9 µM | TGI (SF-295 CNS): > 100 µM | GI50 (SF-539 CNS): > 100 µM and 25.8 µM | TGI (SF-539 CNS): > 100 µM | GI50 (SK-MEL-2 melanoma): > 100 µM and 20.5 µM | TGI (SK-MEL-2 melanoma): > 100 µM | GI50 (SK-MEL-28 melanoma): > 100 µM | TGI (SK-MEL-28 melanoma): > 100 µM | GI50 (SK-MEL-5 melanoma): > 100 µM and 46.1 µM | TGI (SK-MEL-5 melanoma): > 100 µM | GI50 (SK-OV-3 ovarian): > 100 µM and 27.1 µM | TGI (SK-OV-3 ovarian): > 100 µM | GI50 (SN12C renal): > 100 µM and 38 µM | TGI (SN12C renal): > 100 µM | GI50 (SNB-19 CNS): > 100 µM and 29.3 µM | TGI (SNB-19 CNS): > 100 µM | GI50 (SNB-75 CNS): 39.4 µM and 5.4 µM | TGI (SNB-75 CNS): > 100 µM and 43.4 µM | TGI (SR leukemia): > 100 µM | GI50 (SW-620 colon): > 100 µM and 27.9 µM | TGI (SW-620 colon): > 100 µM | GI50 (T-47D breast): > 100 µM and 26.3 µM | TGI (T-47D breast): > 100 µM | GI50 (TK-10 renal): > 100 µM | TGI (TK-10 renal): > 100 µM | GI50 (U251 CNS): > 100 µM and 30.9 µM | TGI (U251 CNS): > 100 µM | GI50 (UACC-257 melanoma): > 100 µM and 71.3 µM | TGI (UACC-257 melanoma): > 100 µM | GI50 (UACC-62 melanoma): > 100 µM and 16.6 µM | TGI (UACC-62 melanoma): > 100 µM | GI50 (UO-31 renal): > 100 µM and 45.4 µM | TGI (UO-31 renal): > 100 µM
